Results reported in US5061495A, “Antibiotic derived from B. subtilis” (Agricultural Genetics Company Limited, priority 1988, dated 1991).
Read-outs that look alike come from different tables or passages of the source.

Assays:
[1] = cited from earlier work
[2] = cited from earlier work; remark: listed apart in the source
[3] = tested on: wheat powdery mildew (Erysiphe graminis); test: Control of wheat powdery mildew by formulated culture broths; assay type: in vivo; settings: 14 days
Method: B.subtilis NCIB 12376 was grown in a yeast peptone-glucose broth at 30° C. in an orbital shaker for 72 hours. The formulants listed in Table 9 were added to samples of culture broths at the concentrations given in Table 9 and stirred until dispersed or dissolved. The formulated broths were tested for control of wheat powdery mildew (Erysiphe graminis) by spraying to run-off wheat plants (cv. Aquila) at the two leaf stage (Zadocks GS 12) prior to inoculation with an aqueous suspension of E. graminis conidia. For each formulation 20 replicate pots of plants were sprayed. Ten pots from each treatment were then thoroughly drenched with a mist bench for 4 minutes, one hour after spraying. All pots were incubated in a glasshouse for 14 days before assessment of disease levels (Table 9).

Compound: Bacillomycin L
- Partition into butanol ([1]; neutral pH): does not partition into butanol
- Thermostability ([2]; pH 3, 14 and 23): thermostable
- Thermostability ([2]; pH 10, 14 and 23): thermostable

Compound: Mycobacillin
- Solubility in acetone ([1]; literature): soluble
- Solubility in water ([1]; pH values of 7 and below, refs. 20 and 22): insoluble

Compound: Mycosubtilin
- Solubility in butanol ([1]; literature): insoluble
- Solubility in ethanol ([1]; literature): insoluble
- Solubility in methanol ([1]; methanol, literature): insoluble

Compound: CC(C)(C)C(=O)C(Oc1ccc(Cl)cc1)n1cncn1 (centres unmarked) [Triadimefon]
- Disease Level (% leaf area infected) ([3]; drenched 4 minutes, one hour after spraying, no treatment 5.6): 0.1%
- Disease Level (% leaf area infected) ([3]; undrenched, no treatment 2.0): 0.2%

Compound: Fungistatin
- Behaviour on contact with water ([1]; water): forms an inactive gel when contacted with water

Compound: Chaetomacin
- Solubility in acetone ([1]; literature): soluble

Compound: Rhizoctonia factor
- Solubility in butanol ([1]; literature): insoluble
- Solubility in ethanol ([1]; literature): insoluble
- Thermostability ([2]; pH 2 only, refs. 5 and 9): thermostable only at pH 2

Compound: Iturin A
- Thermostability ([2]; pH 3, 14 and 23): thermostable
- Thermostability ([2]; pH 10, 14 and 23): thermostable
